Values after ≈ are worked out from the molar mass of the structure shown.
Key:
Assay type in all cases: functional
Klebsiella pneumoniae [1] = assay: Antibacterial activity against Klebsiella pneumoniae at 25 ug/ml after 24 hrs by agar well diffusion method; settings: read-out: DIZ
Klebsiella pneumoniae [2] = assay: Antibacterial activity against Klebsiella pneumoniae at 75 ug/ml after 24 hrs by agar well diffusion method; settings: read-out: DIZ
Fusarium oxysporum [3] = assay: Antifungal activity against Fusarium oxysporum at 75 ug/ml after 48 hrs by agar well diffusion method; settings: read-out: DIZ
Escherichia coli [4] = assay: Antibacterial activity against Escherichia coli at 75 ug/ml after 24 hrs by agar well diffusion method; settings: read-out: DIZ
Staphylococcus aureus [5] = assay: Antibacterial activity against Staphylococcus aureus incubated for overnight by microdilution method
Escherichia coli [6] = assay: Antibacterial activity against Escherichia coli at 25 ug/ml after 24 hrs by agar well diffusion method; settings: read-out: DIZ
Aspergillus niger [7] = assay: Antifungal activity against Aspergillus niger after 48 to 72 hrs by microdilution method
Fusarium oxysporum [8] = assay: Antifungal activity against Fusarium oxysporum at 50 ug/ml after 48 hrs by agar well diffusion method; settings: read-out: DIZ
Staphylococcus aureus [9] = assay: Antibacterial activity against Staphylococcus aureus at 25 ug/ml after 24 hrs by agar well diffusion method; settings: read-out: DIZ
Staphylococcus aureus [10] = assay: Antibacterial activity against Staphylococcus aureus at 100 ug/ml after 24 hrs by agar well diffusion method; settings: read-out: DIZ
Klebsiella pneumoniae [11] = assay: Antibacterial activity against Klebsiella pneumoniae at 50 ug/ml after 24 hrs by agar well diffusion method; settings: read-out: DIZ
Staphylococcus aureus [12] = assay: Antibacterial activity against Staphylococcus aureus at 50 ug/ml after 24 hrs by agar well diffusion method; settings: read-out: DIZ
Fusarium oxysporum [13] = assay: Antifungal activity against Fusarium oxysporum after 48 to 72 hrs by microdilution method
Aspergillus niger [14] = assay: Antifungal activity against Aspergillus niger at 100 ug/ml after 48 hrs by agar well diffusion method; settings: read-out: DIZ
Fusarium verticillioides [15] = assay: Antifungal activity against Fusarium moniliforme at 25 ug/ml after 48 hrs by agar well diffusion method; settings: read-out: DIZ
Fusarium oxysporum [16] = assay: Antifungal activity against Fusarium oxysporum at 100 ug/ml after 48 hrs by agar well diffusion method; settings: read-out: DIZ
Staphylococcus aureus [17] = assay: Antibacterial activity against methicillin resistant Staphylococcus aureus MRSA090 at 75 ug/ml after 24 hrs by agar well diffusion method; settings: MRSA090, 24 h, read-out: DIZ
Bacillus subtilis [18] = assay: Antibacterial activity against Bacillus subtilis at 75 ug/ml after 24 hrs by agar well diffusion method; settings: read-out: DIZ
Escherichia coli [19] = assay: Antibacterial activity against Escherichia coli at 100 ug/ml after 24 hrs by agar well diffusion method; settings: read-out: DIZ
Fusarium oxysporum [20] = assay: Antifungal activity against Fusarium oxysporum at 25 ug/ml after 48 hrs by agar well diffusion method; settings: read-out: DIZ
Staphylococcus aureus [21] = assay: Antibacterial activity against methicillin resistant Staphylococcus aureus MRSA090 at 25 ug/ml after 24 hrs by agar well diffusion method; settings: MRSA090, 24 h, read-out: DIZ
Klebsiella pneumoniae [22] = assay: Antibacterial activity against Klebsiella pneumoniae at 100 ug/ml after 24 hrs by agar well diffusion method; settings: read-out: DIZ
Staphylococcus aureus [23] = assay: Antibacterial activity against methicillin resistant Staphylococcus aureus MRSA090 at 50 ug/ml after 24 hrs by agar well diffusion method; settings: MRSA090, 24 h, read-out: DIZ
Escherichia coli [24] = assay: Antibacterial activity against Escherichia coli incubated for overnight by microdilution method
Staphylococcus aureus [25] = assay: Antibacterial activity against methicillin resistant Staphylococcus aureus MRSA090 at 100 ug/ml after 24 hrs by agar well diffusion method; settings: MRSA090, 24 h, read-out: DIZ
Bacillus subtilis [26] = assay: Antibacterial activity against Bacillus subtilis incubated for overnight by microdilution method
Klebsiella pneumoniae [27] = assay: Antibacterial activity against Klebsiella pneumoniae incubated for overnight by microdilution method
Fusarium verticillioides [28] = assay: Antifungal activity against Fusarium moniliforme at 75 ug/ml after 48 hrs by agar well diffusion method; settings: read-out: DIZ
Aspergillus niger [29] = assay: Antifungal activity against Aspergillus niger at 25 ug/ml after 48 hrs by agar well diffusion method; settings: read-out: DIZ
Aspergillus niger [30] = assay: Antifungal activity against Aspergillus niger at 75 ug/ml after 48 hrs by agar well diffusion method; settings: read-out: DIZ
Fusarium verticillioides [31] = assay: Antifungal activity against Fusarium moniliforme at 100 ug/ml after 48 hrs by agar well diffusion method; settings: read-out: DIZ
Fusarium verticillioides [32] = assay: Antifungal activity against Fusarium moniliforme at 50 ug/ml after 48 hrs by agar well diffusion method; settings: read-out: DIZ
Aspergillus niger [33] = assay: Antifungal activity against Aspergillus niger at 50 ug/ml after 48 hrs by agar well diffusion method; settings: read-out: DIZ
Staphylococcus aureus [34] = assay: Antibacterial activity against Staphylococcus aureus at 75 ug/ml after 24 hrs by agar well diffusion method; settings: read-out: DIZ
Bacillus subtilis [35] = assay: Antibacterial activity against Bacillus subtilis at 25 ug/ml after 24 hrs by agar well diffusion method; settings: read-out: DIZ
Fusarium verticillioides [36] = assay: Antifungal activity against Fusarium moniliforme after 48 to 72 hrs by microdilution method
Bacillus subtilis [37] = assay: Antibacterial activity against Bacillus subtilis at 50 ug/ml after 24 hrs by agar well diffusion method; settings: read-out: DIZ
Escherichia coli [38] = assay: Antibacterial activity against Escherichia coli at 50 ug/ml after 24 hrs by agar well diffusion method; settings: read-out: DIZ
Bacillus subtilis [39] = assay: Antibacterial activity against Bacillus subtilis at 100 ug/ml after 24 hrs by agar well diffusion method; settings: read-out: DIZ
Staphylococcus aureus [40] = assay: Antibacterial activity against methicillin resistant Staphylococcus aureus MRSA090 incubated for overnight by microdilution method

SMILES | zone of inhibition at 25 µg/mL (Klebsiella pneumoniae [1]) | zone of inhibition at 75 µg/mL (Klebsiella pneumoniae [2]) | zone of inhibition at 75 µg/mL (Fusarium oxysporum [3]) | zone of inhibition at 75 µg/mL (Escherichia coli [4]) | MIC (Staphylococcus aureus [5]) | zone of inhibition at 25 µg/mL (Escherichia coli [6]) | MIC (Aspergillus niger [7]) | zone of inhibition at 50 µg/mL (Fusarium oxysporum [8]) | zone of inhibition at 25 µg/mL (Staphylococcus aureus [9]) | zone of inhibition at 100 µg/mL (Staphylococcus aureus [10]) | zone of inhibition at 50 µg/mL (Klebsiella pneumoniae [11]) | zone of inhibition at 50 µg/mL (Staphylococcus aureus [12]) | MIC (Fusarium oxysporum [13]) | zone of inhibition at 100 µg/mL (Aspergillus niger [14]) | zone of inhibition at 25 µg/mL (Fusarium verticillioides [15]) | zone of inhibition at 100 µg/mL (Fusarium oxysporum [16]) | zone of inhibition at 75 µg/mL (Staphylococcus aureus [17]) | zone of inhibition at 75 µg/mL (Bacillus subtilis [18]) | zone of inhibition at 100 µg/mL (Escherichia coli [19]) | zone of inhibition at 25 µg/mL (Fusarium oxysporum [20]) | also measured
Cc1cccc2nc(N/N=C/c3cc4ccccc4[nH]3)sc12 | 4 mm | 18 mm | 31 mm | 30 mm | 24 µg/mL (≈ 78.3 µM) | 17 mm | 25 µg/mL (≈ 81.6 µM) | 24 mm | 14 mm | 30 mm | 9 mm | 18 mm | 22 µg/mL (≈ 71.8 µM) | 30 mm | 8 mm | 36 mm | 27 mm | 19 mm | 33 mm | 17 mm | zone of inhibition at 25 µg/mL (Staphylococcus aureus [21]): 16 mm; zone of inhibition at 100 µg/mL (Klebsiella pneumoniae [22]): 24 mm; zone of inhibition at 50 µg/mL (Staphylococcus aureus [23]): 23 mm; MIC (Escherichia coli [24]): 24 µg/mL (≈ 78.3 µM); zone of inhibition at 100 µg/mL (Staphylococcus aureus [25]): 30 mm; MIC (Bacillus subtilis [26]): 25 µg/mL (≈ 81.6 µM); MIC (Klebsiella pneumoniae [27]): 25 µg/mL (≈ 81.6 µM); zone of inhibition at 75 µg/mL (Fusarium verticillioides [28]): 9 mm; zone of inhibition at 25 µg/mL (Aspergillus niger [29]): 12 mm; zone of inhibition at 75 µg/mL (Aspergillus niger [30]): 24 mm; zone of inhibition at 100 µg/mL (Fusarium verticillioides [31]): 22 mm; zone of inhibition at 50 µg/mL (Fusarium verticillioides [32]): 14 mm; zone of inhibition at 50 µg/mL (Aspergillus niger [33]): 19 mm; zone of inhibition at 75 µg/mL (Staphylococcus aureus [34]): 24 mm; zone of inhibition at 25 µg/mL (Bacillus subtilis [35]): 10 mm; MIC (Fusarium verticillioides [36]): 24 µg/mL (≈ 78.3 µM); zone of inhibition at 50 µg/mL (Bacillus subtilis [37]): 14 mm; zone of inhibition at 50 µg/mL (Escherichia coli [38]): 24 mm; zone of inhibition at 100 µg/mL (Bacillus subtilis [39]): 21 mm; MIC (Staphylococcus aureus [40]): 22 µg/mL (≈ 71.8 µM)
Cc1cccc2nc(N/N=C/c3ccc(Br)cc3Br)sc12 | 8 mm | 15 mm | 30 mm | 12 mm | 28 µg/mL (≈ 65.9 µM) | 5 mm | 20 µg/mL (≈ 47 µM) | 24 mm | 11 mm | 21 mm | 11 mm | 15 mm | 16 µg/mL (≈ 37.6 µM) | 40 mm | 21 mm | 38 mm | 15 mm | 24 mm | 16 mm | 16 mm | zone of inhibition at 25 µg/mL (Staphylococcus aureus [21]): 8 mm; zone of inhibition at 100 µg/mL (Klebsiella pneumoniae [22]): 20 mm; zone of inhibition at 50 µg/mL (Staphylococcus aureus [23]): 12 mm; MIC (Escherichia coli [24]): 24 µg/mL (≈ 56.5 µM); zone of inhibition at 100 µg/mL (Staphylococcus aureus [25]): 17 mm; MIC (Bacillus subtilis [26]): 28 µg/mL (≈ 65.9 µM); MIC (Klebsiella pneumoniae [27]): 20 µg/mL (≈ 47 µM); zone of inhibition at 75 µg/mL (Fusarium verticillioides [28]): 32 mm; zone of inhibition at 25 µg/mL (Aspergillus niger [29]): 24 mm; zone of inhibition at 75 µg/mL (Aspergillus niger [30]): 36 mm; zone of inhibition at 100 µg/mL (Fusarium verticillioides [31]): 41 mm; zone of inhibition at 50 µg/mL (Fusarium verticillioides [32]): 27 mm; zone of inhibition at 50 µg/mL (Aspergillus niger [33]): 29 mm; zone of inhibition at 75 µg/mL (Staphylococcus aureus [34]): 18 mm; zone of inhibition at 25 µg/mL (Bacillus subtilis [35]): 13 mm; MIC (Fusarium verticillioides [36]): 18 µg/mL (≈ 42.3 µM); zone of inhibition at 50 µg/mL (Bacillus subtilis [37]): 17 mm; zone of inhibition at 50 µg/mL (Escherichia coli [38]): 8 mm; zone of inhibition at 100 µg/mL (Bacillus subtilis [39]): 27 mm
